According to publication PMC5218480 (PLoS ONE, 2017):

Test system: MV-4-11 cells
Assay: Gene expression microarray analysis (Affymetrix PrimeView) and GSEA
Type: cell-based, human
Design: RFU PODN (11730768_x_at) / Fold change /veh PODN (11730768_x_at) / RFU LINC00158 (11744669_a_at) / Fold change /veh LINC00158 (11744669_a_at) / RFU DUSP10 (11751237_a_at) / Fold change /veh DUSP10 (11751237_a_at) / RFU ID3 (11757404_x_at) / Fold change /veh ID3 (11757404_x_at) / RFU PLEKHG5 (11737974_s_at) / Fold change /veh PLEKHG5 (11737974_s_at) / RFU LRRC4B (11730491_at) / Fold change /veh LRRC4B (11730491_at) / RFU GIMAP4 (11747438_a_at) / Fold change /veh GIMAP4 (11747438_a_at) / RFU KRT8 (11758183_x_at) / Fold change /veh KRT8 (11758183_x_at) / RFU CNN1 (11734310_a_at) / Fold change /veh CNN1 (11734310_a_at) / RFU VPS37D (11726825_at) / Fold change /veh VPS37D (11726825_at) / RFU C10orf10 (11716522_x_at) / Fold change /veh C10orf10 (11716522_x_at) / RFU KIR2DL2 /// KIR2DL4 /// KIR2DL5A /// KIR2DL5B /// KIR2DS1 /// KIR2DS2 /// KIR2DS3 /// KIR2DS4 /// KIR3DL3 /// KIR3DL3 /// KIR3DS1 (11738374_at) / Fold change /veh KIR2DL2 /// KIR2DL4 /// KIR2DL5A /// KIR2DL5B /// KIR2DS1 /// KIR2DS2 /// KIR2DS3 /// KIR2DS4 /// KIR3DL3 /// KIR3DL3 /// KIR3DS1 (11738374_at) / RFU C1QL1 (11718748_at) / Fold change /veh C1QL1 (11718748_at) / RFU TMPRSS4 (11747572_a_at) / Fold change /veh TMPRSS4 (11747572_a_at) / RFU HAMP (11756126_x_at) / Fold change /veh HAMP (11756126_x_at) / RFU RNFT2 (11725882_a_at) / Fold change /veh RNFT2 (11725882_a_at) / RFU NR4A2 (11747474_a_at) / Fold change /veh NR4A2 (11747474_a_at) / RFU ABCC12 (11746883_a_at) / Fold change /veh ABCC12 (11746883_a_at) / RFU TMEM136 (11760407_x_at) / Fold change /veh TMEM136 (11760407_x_at) / RFU CLDN22 /// WWC2 (11732394_at) / Fold change /veh CLDN22 /// WWC2 (11732394_at) / RFU HLA-DPB1 (11760878_x_at) / Fold change /veh HLA-DPB1 (11760878_x_at) / RFU SPINT1 (11716480_a_at) / Fold change /veh SPINT1 (11716480_a_at) / RFU GAP43 (11754022_s_at) / Fold change /veh GAP43 (11754022_s_at) / RFU A4GNT (11735810_at) / Fold change /veh A4GNT (11735810_at) / RFU PRB3 (11715151_x_at) / Fold change /veh PRB3 (11715151_x_at) / RFU TUBB4B (11761932_at) / Fold change /veh TUBB4B (11761932_at) / RFU CAPN14 (11732068_a_at) / Fold change /veh CAPN14 (11732068_a_at) / RFU TMCC2 (11721928_a_at) / Fold change /veh TMCC2 (11721928_a_at) / RFU IRGQ (11745062_a_at) / Fold change /veh IRGQ (11745062_a_at) / RFU FAM174B (11720279_a_at) / Fold change /veh FAM174B (11720279_a_at) / RFU TMPRSS4 (11748680_a_at) / Fold change /veh TMPRSS4 (11748680_a_at) / RFU FAM212B (11763350_a_at) / Fold change /veh FAM212B (11763350_a_at) / RFU PLEKHG5 (11743358_a_at) / Fold change /veh PLEKHG5 (11743358_a_at) / RFU ZSCAN30 (11745921_a_at) / Fold change /veh ZSCAN30 (11745921_a_at) / RFU CMKLR1 (11741424_a_at) / Fold change /veh CMKLR1 (11741424_a_at) / RFU LOC101060620 /// MAPK8IP1 (11723275_at) / Fold change /veh LOC101060620 /// MAPK8IP1 (11723275_at) / RFU SPTSSB (11747773_x_at) / Fold change /veh SPTSSB (11747773_x_at) / RFU PRSS12 (11739890_at) / Fold change /veh PRSS12 (11739890_at) / RFU BIN1 (11741810_x_at) / Fold change /veh BIN1 (11741810_x_at) / RFU WNT11 (11732464_a_at) / Fold change /veh WNT11 (11732464_a_at) / RFU C10orf10 (11716521_a_at) / Fold change /veh C10orf10 (11716521_a_at) / RFU C5orf56 (11738089_at) / Fold change /veh C5orf56 (11738089_at) / RFU CYB561 (11721691_x_at) / Fold change /veh CYB561 (11721691_x_at) / RFU ANKRD19P (11752326_a_at) / Fold change /veh ANKRD19P (11752326_a_at) / RFU OR2T12 /// OR2T33 /// OR2T8 (11738714_s_at) / Fold change /veh OR2T12 /// OR2T33 /// OR2T8 (11738714_s_at) / RFU VCAN (11748164_a_at) / Fold change /veh VCAN (11748164_a_at) / RFU JSRP1 (11732532_at) / Fold change /veh JSRP1 (11732532_at) / RFU KRTAP10-11 (11738290_x_at) / Fold change /veh KRTAP10-11 (11738290_x_at) / RFU MYO3A (11730013_a_at) / Fold change /veh MYO3A (11730013_a_at) / RFU EBF3 (11725865_a_at) / Fold change /veh EBF3 (11725865_a_at) / RFU CAMK2N1 (11719241_x_at) / Fold change /veh CAMK2N1 (11719241_x_at) / RFU C5orf56 (11738088_a_at) / Fold change /veh C5orf56 (11738088_a_at) / RFU OLFML3 (11715873_a_at) / Fold change /veh OLFML3 (11715873_a_at) / RFU LOC100653217 /// NTM (11731650_a_at) / Fold change /veh LOC100653217 /// NTM (11731650_a_at) / RFU MAPK11 (11762145_a_at) / Fold change /veh MAPK11 (11762145_a_at) / RFU FIZ1 (11724087_x_at) / Fold change /veh FIZ1 (11724087_x_at) / RFU OASL (11726364_x_at) / Fold change /veh OASL (11726364_x_at) / RFU SOX15 (11748057_x_at) / Fold change /veh SOX15 (11748057_x_at) / RFU CD79A (11719716_a_at) / Fold change /veh CD79A (11719716_a_at) / RFU HIST1H1D (11736915_at) / Fold change /veh HIST1H1D (11736915_at) / RFU CASKIN2 (11723855_a_at) / Fold change /veh CASKIN2 (11723855_a_at) / RFU LOC730098 (11760151_x_at) / Fold change /veh LOC730098 (11760151_x_at) / RFU OR4N2 (11742367_at) / Fold change /veh OR4N2 (11742367_at) / RFU PRRT2 (11749266_a_at) / Fold change /veh PRRT2 (11749266_a_at) / RFU SNX32 (11753110_a_at) / Fold change /veh SNX32 (11753110_a_at) / RFU CDHR5 (11726645_a_at) / Fold change /veh CDHR5 (11726645_a_at) / RFU RCAN1 (11760418_a_at) / Fold change /veh RCAN1 (11760418_a_at) / RFU FAM167A (11723789_a_at) / Fold change /veh FAM167A (11723789_a_at) / RFU FAM26E (11764081_at) / Fold change /veh FAM26E (11764081_at) / RFU ISYNA1 (11749810_s_at) / Fold change /veh ISYNA1 (11749810_s_at) / RFU ACY1 (11761880_at) / Fold change /veh ACY1 (11761880_at) / RFU 11764098_at / Fold change /veh 11764098_at / RFU SAMD14 (11745864_x_at) / Fold change /veh SAMD14 (11745864_x_at) / RFU NPB (11741838_a_at) / Fold change /veh NPB (11741838_a_at) / RFU TMPRSS6 (11731388_a_at) / Fold change /veh TMPRSS6 (11731388_a_at) / RFU KRTAP10-2 (11738614_at) / Fold change /veh KRTAP10-2 (11738614_at) / RFU ARHGAP8 /// PRR5-ARHGAP8 (11727945_x_at) / Fold change /veh ARHGAP8 /// PRR5-ARHGAP8 (11727945_x_at) / RFU KRTAP5-7 /// NADSYN1 (11734609_at) / Fold change /veh KRTAP5-7 /// NADSYN1 (11734609_at) / RFU RASL12 (11751679_a_at) / Fold change /veh RASL12 (11751679_a_at) / RFU CDKN2B (11736163_a_at) / Fold change /veh CDKN2B (11736163_a_at) / RFU PRF1 (11729649_at) / Fold change /veh PRF1 (11729649_at) / RFU, ZNF638 /// ZNF638-IT1 / Fold change vs veh, ZNF638 /// ZNF638-IT1 / RFU, PANK3 / Fold change vs veh, PANK3 / RFU, SH3YL1 / Fold change vs veh, SH3YL1 / RFU, ZEB2 / Fold change vs veh, ZEB2 / RFU, NRIP1 / Fold change vs veh, NRIP1 / RFU, PTTG1IP / Fold change vs veh, PTTG1IP / RFU, CAPN2 / Fold change vs veh, CAPN2 / RFU, MED14 / Fold change vs veh, MED14 / RFU, SNORA58 / Fold change vs veh, SNORA58 / RFU, C1orf63 / Fold change vs veh, C1orf63 / RFU, LRRFIP1 / Fold change vs veh, LRRFIP1 / RFU, NDUFAF7 / Fold change vs veh, NDUFAF7 / RFU, SLC12A2 / Fold change vs veh, SLC12A2 / RFU, IBTK / Fold change vs veh, IBTK / RFU, ESF1 / Fold change vs veh, ESF1 / Fold change vs veh, TMEM50B / RFU, TAOK1 / Fold change vs veh, TAOK1 / RFU, ACBD3 / Fold change vs veh, ACBD3 / RFU, TMA16 / Fold change vs veh, TMA16 / RFU, RWDD3 / Fold change vs veh, RWDD3 / RFU, BCAT1 / Fold change vs veh, BCAT1 / RFU, EDEM3 / Fold change vs veh, EDEM3 / RFU, TMEM33 / Fold change vs veh, TMEM33 / RFU, WDR75 / Fold change vs veh, WDR75 / RFU, AHCTF1 / Fold change vs veh, AHCTF1 / RFU, TFRC / Fold change vs veh, TFRC / RFU, ZDHHC17 / Fold change vs veh, ZDHHC17 / RFU, NOM1 / Fold change vs veh, NOM1 / RFU, ARL8B / Fold change vs veh, ARL8B / RFU, ZBTB11 / Fold change vs veh, ZBTB11 / RFU, TAMM41 / Fold change vs veh, TAMM41 / RFU, KIAA1704 /// LOC100996395 / Fold change vs veh, KIAA1704 /// LOC100996395 / RFU, ING1 / Fold change vs veh, ING1 / RFU, TRMT61B / Fold change vs veh, TRMT61B / RFU, FUBP3 / Fold change vs veh, FUBP3 / RFU, TP53 / Fold change vs veh, TP53 / RFU, TNKS2 / Fold change vs veh, TNKS2 / RFU, ZFP14 / Fold change vs veh, ZFP14 / RFU, ACTR2 / Fold change vs veh, ACTR2 / RFU, PPP3R1 / Fold change vs veh, PPP3R1 / RFU, PIK3R1 / Fold change vs veh, PIK3R1 / RFU, HNRNPA1 / Fold change vs veh, HNRNPA1 / RFU, RNF170 / Fold change vs veh, RNF170 / RFU, ZNF28 / Fold change vs veh, ZNF28 / RFU, RNGTT / Fold change vs veh, RNGTT / RFU, OGT / Fold change vs veh, OGT / RFU, BRD1 / Fold change vs veh, BRD1 / RFU, MARS / Fold change vs veh, MARS / RFU, ZNF655 / Fold change vs veh, ZNF655 / RFU, FAHD1 / Fold change vs veh, FAHD1 / RFU, BDP1 / Fold change vs veh, BDP1 / RFU, LRRCC1 / Fold change vs veh, LRRCC1 / RFU, ARID1A / Fold change vs veh, ARID1A / RFU, ZNF146 / Fold change vs veh, ZNF146 / RFU, ZNF330 / Fold change vs veh, ZNF330 / RFU, GPN3 / Fold change vs veh, GPN3 / RFU, C9orf123 / Fold change vs veh, C9orf123 / RFU, N4BP2L2 / Fold change vs veh, N4BP2L2 / RFU, ARFIP1 / Fold change vs veh, ARFIP1 / RFU, FAM179B / Fold change vs veh, FAM179B / RFU, BCL10 / Fold change vs veh, BCL10 / RFU, UHRF1BP1L / Fold change vs veh, UHRF1BP1L / RFU, BET1 / Fold change vs veh, BET1 / RFU, CNOT2 / Fold change vs veh, CNOT2 / RFU, ZNF268 / Fold change vs veh, ZNF268 / Fold change vs veh, ZNF507 / RFU, DGCR2 / Fold change vs veh, DGCR2 / RFU, WDSUB1 / Fold change vs veh, WDSUB1 / Fold change vs veh, HSP90B1 /// MIR3652 / RFU, ADSS / Fold change vs veh, ADSS / RFU, GK / Fold change vs veh, GK / RFU, ZNF148 / Fold change vs veh, ZNF148 / RFU, TAF9 / Fold change vs veh, TAF9 / RFU, SLC1A5 / Fold change vs veh, SLC1A5 / RFU, SLMO2 / Fold change vs veh, SLMO2 / RFU, ABCC4 / Fold change vs veh, ABCC4 / RFU, LOC101060439 /// RAP1B / Fold change vs veh, LOC101060439 /// RAP1B / RFU, RFX7 / Fold change vs veh, RFX7 / RFU, GTPBP10 / Fold change vs veh, GTPBP10 / RFU, CNEP1R1 / Fold change vs veh, CNEP1R1 / RFU, BIVM-ERCC5 /// ERCC5 / Fold change vs veh, BIVM-ERCC5 /// ERCC5 / RFU, ILF3 / Fold change vs veh, ILF3 / RFU 11762660_at / Fold change /veh 11762660_at / RFU VCAN (11757783_s_at) / Fold change /veh VCAN (11757783_s_at) / RFU DDX43 (11728927_at) / Fold change /veh DDX43 (11728927_at) / RFU KRT8 (11758188_x_at) / Fold change /veh KRT8 (11758188_x_at) / RFU NKD1 (11759106_at) / Fold change /veh NKD1 (11759106_at) / RFU SRD5A1 (11742802_a_at) / Fold change /veh SRD5A1 (11742802_a_at) / RFU TPSAB1 /// TPSB2 (11721975_s_at) / Fold change /veh TPSAB1 /// TPSB2 (11721975_s_at) / RFU GSTM3 (11746129_a_at) / Fold change /veh GSTM3 (11746129_a_at) / RFU IL23R (11737362_x_at) / Fold change /veh IL23R (11737362_x_at) / RFU TMEM51 (11727254_a_at) / Fold change /veh TMEM51 (11727254_a_at) / RFU PIWIL2 (11732686_x_at) / Fold change /veh PIWIL2 (11732686_x_at) / RFU ORM1 (11744905_x_at) / Fold change /veh ORM1 (11744905_x_at) / RFU CCDC152 (11743942_at) / Fold change /veh CCDC152 (11743942_at) / RFU ECM1 (11717891_a_at) / Fold change /veh ECM1 (11717891_a_at) / RFU IL23R (11748794_a_at) / Fold change /veh IL23R (11748794_a_at) / RFU TNFAIP8L3 (11732012_x_at) / Fold change /veh TNFAIP8L3 (11732012_x_at) / RFU MBOAT4 (11741988_at) / Fold change /veh MBOAT4 (11741988_at) / RFU 11764193_at / Fold change /veh 11764193_at / RFU TMEM53 (11763286_at) / Fold change /veh TMEM53 (11763286_at) / RFU MAGEB2 (11727129_at) / Fold change /veh MAGEB2 (11727129_at) / RFU TMEM200A (11744735_a_at) / Fold change /veh TMEM200A (11744735_a_at) / RFU CCDC152 (11751479_a_at) / Fold change /veh CCDC152 (11751479_a_at) / RFU FAM211A (11726209_a_at) / Fold change /veh FAM211A (11726209_a_at) / RFU RGS16 (11746705_a_at) / Fold change /veh RGS16 (11746705_a_at) / RFU VCAN (11755009_s_at) / Fold change /veh VCAN (11755009_s_at) / RFU RHOB (11743442_s_at) / Fold change /veh RHOB (11743442_s_at) / RFU RGS16 (11720943_a_at) / Fold change /veh RGS16 (11720943_a_at) / RFU RGS16 (11720944_at) / Fold change /veh RGS16 (11720944_at) / RFU, VPS4B / Fold change vs veh, VPS4B / RFU, CREB1 / Fold change vs veh, CREB1 / RFU, DNAJC13 / Fold change vs veh, DNAJC13 / RFU, GNAQ / Fold change vs veh, GNAQ / RFU, CDK5R1 / Fold change vs veh, CDK5R1 / RFU, ZRANB3 / Fold change vs veh, ZRANB3 / RFU, CUL4A / Fold change vs veh, CUL4A / RFU, CCNY / Fold change vs veh, CCNY / RFU, UFL1 / Fold change vs veh, UFL1 / RFU, COG3 / Fold change vs veh, COG3 / RFU, DIAPH2 / Fold change vs veh, DIAPH2 / RFU, SKA2 / Fold change vs veh, SKA2 / RFU, AFF3 / Fold change vs veh, AFF3 / RFU, LMF1 / Fold change vs veh, LMF1 / RFU, IPO11 / Fold change vs veh, IPO11 / RFU, DFFB / Fold change vs veh, DFFB / RFU, FOXP1 / Fold change vs veh, FOXP1 / RFU, CARD8 / Fold change vs veh, CARD8 / RFU, STRN3 / Fold change vs veh, STRN3 / RFU, ADK / Fold change vs veh, ADK / RFU, RASSF2 / Fold change vs veh, RASSF2 / RFU, WIPF1 / Fold change vs veh, WIPF1 / RFU, LARP1B / Fold change vs veh, LARP1B / RFU, RASA1 / Fold change vs veh, RASA1 / RFU, RB1 / Fold change vs veh, RB1 / RFU, PPFIA1 / Fold change vs veh, PPFIA1 / RFU, MAT2A / Fold change vs veh, MAT2A / RFU, CCT5 / Fold change vs veh, CCT5 / RFU, WDR92 / Fold change vs veh, WDR92 / RFU, CUX1 / Fold change vs veh, CUX1 / RFU, TTC7A / Fold change vs veh, TTC7A / RFU, TMEM135 / Fold change vs veh, TMEM135 / RFU, DEPTOR / Fold change vs veh, DEPTOR / RFU, CPM / Fold change vs veh, CPM / RFU, DNAJB6 / Fold change vs veh, DNAJB6 / RFU, CACNA2D3 / Fold change vs veh, CACNA2D3 / RFU, DTX4 / Fold change vs veh, DTX4 / RFU, TFCP2 / Fold change vs veh, TFCP2 / RFU, GMCL1 /// GMCL1P1 / Fold change vs veh, GMCL1 /// GMCL1P1 / RFU, AEBP2 / Fold change vs veh, AEBP2 / RFU, SNHG1 /// SNORD22 /// SNORD25 /// SNORD26 /// SNORD27 /// SNORD28 /// SNORD29 /// SNORD31 / Fold change vs veh, SNHG1 /// SNORD22 /// SNORD25 /// SNORD26 /// SNORD27 /// SNORD28 /// SNORD29 /// SNORD31 / Fold change (Aza/veh), C12orf56 (ProbeSet 11735607_a_at) / Fold change (ACY-1035/veh), C12orf56 (ProbeSet 11735607_a_at) / Fold change (Aza/veh), FGFR1OP (ProbeSet 11751329_s_at) / Fold change (ACY-1035/veh), FGFR1OP (ProbeSet 11751329_s_at) / Fold change (Aza/veh), VPS36 (ProbeSet 11739960_a_at) / Fold change (ACY-1035/veh), VPS36 (ProbeSet 11739960_a_at) / RFU SYPL1 (11715823_x_at) / Fold change /veh SYPL1 (11715823_x_at) / RFU IGFBP7 (11715501_s_at) / Fold change /veh IGFBP7 (11715501_s_at) / RFU REEP3 (11722064_at) / Fold change /veh REEP3 (11722064_at) / RFU IGLL1 (11728026_x_at) / Fold change /veh IGLL1 (11728026_x_at): dose or concentration left out as unconfirmed
Settings: ProbeSet 11747889_x_at; LIST B

## Nc1ccc(-c2cccs2)cc1NC(=O)c1ccc2c(c1)cc(C1CC1)n2CCN1CCOCC1 [ACY-1035]
  RFU, SH3YL1: 65.52 RFU
